Key:
[1] = target: T1, Carbonic anhydrase (Dicentrarchus labrax, UniProt Q2PCB5); experiment: Inhibition of Dicentrarchus labrax CA using 4-nitrophenylacetate substrate by esterase assay
T1 sequence (Q2PCB5 whole entry): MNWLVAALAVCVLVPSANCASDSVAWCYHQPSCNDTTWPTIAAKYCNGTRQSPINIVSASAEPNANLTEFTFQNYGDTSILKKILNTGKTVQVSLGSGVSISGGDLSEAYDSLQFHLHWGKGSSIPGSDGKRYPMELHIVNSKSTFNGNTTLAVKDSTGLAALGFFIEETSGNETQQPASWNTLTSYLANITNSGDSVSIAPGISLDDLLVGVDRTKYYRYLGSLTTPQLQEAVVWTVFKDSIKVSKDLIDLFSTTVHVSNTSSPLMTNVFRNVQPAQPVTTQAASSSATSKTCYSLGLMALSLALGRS

[2] = target: Carbonic anhydrase 6 (Homo sapiens, UniProt P23280); experiment: Inhibition of human CA6 using 4-nitrophenylacetate substrate by esterase assay
Sequence of Carbonic anhydrase 6 (P23280 whole entry): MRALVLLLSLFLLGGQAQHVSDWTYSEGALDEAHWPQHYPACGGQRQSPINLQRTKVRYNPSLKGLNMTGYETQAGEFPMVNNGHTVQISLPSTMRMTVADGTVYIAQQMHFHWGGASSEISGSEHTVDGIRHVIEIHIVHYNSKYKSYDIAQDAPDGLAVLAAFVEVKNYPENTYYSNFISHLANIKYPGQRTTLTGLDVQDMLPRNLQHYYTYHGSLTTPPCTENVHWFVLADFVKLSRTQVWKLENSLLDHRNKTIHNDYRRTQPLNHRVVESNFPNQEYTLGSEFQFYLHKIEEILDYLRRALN

[3] = target: Carbonic anhydrase 1 (Homo sapiens, UniProt P00915); experiment: Inhibition of human CA1 using 4-nitrophenylacetate substrate by esterase assay
Sequence of Carbonic anhydrase 1 (P00915 whole entry): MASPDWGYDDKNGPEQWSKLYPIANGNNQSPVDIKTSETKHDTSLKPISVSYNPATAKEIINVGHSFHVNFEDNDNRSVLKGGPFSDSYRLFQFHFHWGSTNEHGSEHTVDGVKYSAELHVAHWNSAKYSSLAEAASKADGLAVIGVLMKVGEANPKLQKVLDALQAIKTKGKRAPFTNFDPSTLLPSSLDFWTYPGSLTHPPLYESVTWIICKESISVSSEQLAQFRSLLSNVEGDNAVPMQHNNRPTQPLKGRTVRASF

[4] = target: Carbonic anhydrase 2 (Homo sapiens, UniProt P00918); experiment: Inhibition of human CA2 using 4-nitrophenylacetate substrate by esterase assay

Ki [1] [µM]	Ki [2] [µM]	Ki [3] [µM]	Ki [4] [µM]	SMILES
4.39	0.52	7.41	0.54	Oc1cccc(O)c1O [PYROGALLOL]
5.93	–	–	–	Oc1ccc(O)cc1 [HYDROQUINONE]
6.42	–	–	–	Oc1cccc(O)c1 [RESORCINOL]
2.13	–	–	–	O=C(O)c1cc(O)cc(O)c1 [3,5-DIHYDROXYBENZOIC ACID]
98.3	3.17	–	–	O=C(O)c1cccc(O)c1 [3-HYDROXYBENZOIC ACID]

The next lines start with the molecule.

SMILES	Ki [1] [µM]	Ki [2] [µM]	Ki [3] [µM]	Ki [4] [µM]
O=C(O)c1ccc(O)cc1 [PARABEN]	8.46	–	–	–
O=C(O)c1ccc(O)c(O)c1 [PROTOCATECHUIC ACID]	3.21	4.72	–	–
Oc1ccccc1O [CATECHOL]	14.8	–	–	–
O=C(O)c1cc(O)c(O)c(O)c1 [GALLIC ACID]	4.13	–	–	–
O=C(OC[C@H]1O[C@@H](OC(=O)c2cc(O)c(O)c(OC(=O)c3cc(O)c(O)c(O)c3)c2)[C@H](OC(=O)c2cc(O)c(O)c(OC(=O)c3cc(O)c(O)c(O)c3)c2)[C@@H](OC(=O)c2cc(O)c(O)c(OC(=O)c3cc(O)c(O)c(O)c3)c2)[C@@H]1OC(=O)c1cc(O)c(O)c(OC(=O)c2cc(O)c(O)c(O)c2)c1)c1cc(O)c(O)c(OC(=O)c2cc(O)c(O)c(O)c2)c1 [TANNIC ACID]	9.41	17.8	75.9	32.8
O=C(O)c1ccccc1O [SALICYLIC ACID]	324	–	–	–
Oc1ccccc1 [PHENOL]	13.7	–	–	–

From ChEMBL document CHEMBL1799986, “In vitro inhibition of α-carbonic anhydrase isozymes by some phenolic compounds” (Bioorg Med Chem Lett, 2011)
